Reference: patent US9657081B2, “Inhibiting peptides derived from triggering receptor expressed on myeloid cells-1 (TREM-1) TREM-like transcript 1 (TLT-1) for treatment of cardiovascular diseases” (INSERM (Institut National de la Sante et de la Recherche …, priority 2013, dated 2017)

Columns and labels:
TREM-1 [1] = target: T1, TREM-1 (Mus musculus, UniProt Q9JKE2); test: Mouse myocardial infarction, myocardial inflammatory reaction and protease activity in infarcted tissue; type: in vivo; details: myocardium after coronary artery ligation
T1 construct: endogenous in cells; host or cells: living mice (C57BL, Balb/c, ApoE-/-), in vivo
T1 sequence (Q9JKE2 21-230): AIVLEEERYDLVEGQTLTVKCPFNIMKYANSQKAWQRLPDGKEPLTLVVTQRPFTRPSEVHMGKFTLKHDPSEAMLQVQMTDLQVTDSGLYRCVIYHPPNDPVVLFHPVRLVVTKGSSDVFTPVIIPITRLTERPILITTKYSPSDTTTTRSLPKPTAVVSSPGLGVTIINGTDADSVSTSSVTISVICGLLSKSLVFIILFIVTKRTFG
Protocol: For these experiments, myocardial lysate was obtained 24 hours after the induction of myocardial infarction from mice treated with TREM-1- and TLT-1-derived peptides or control LR12-scrambled peptide (‘controls’). Two areas were studied: a healthy area harvested distally from the infarcted zone in a control animal and an infarcted area. Data are representative of at least 5 different experiments. Results are mean±SD. p values are *p<0.001 [LR12 versus controls].
For these experiments, myocardial lysate was obtained 6, 24 and/or 96 hours after the induction of myocardial infarction from mice treated with TREM-1- and TLT-1-derived peptides or control LR12-scrambled peptide (‘controls’). Infarcted areas were analyzed for cytokine/chemokine production. Data are representative of at least 5 different experiments. p values are *p<0.001 [LR12 versus controls].
For these experiments, myocardial lysate was obtained 6, 24 and 96 hours after the induction of myocardial infarction from mice treated with TREM-1- and TLT-1-derived peptides or control LR12-scrambled peptide (‘controls’). Infarcted areas were analyzed. […]
Mice were monitored after surgery for mortality. Mice were randomized to receive or not peptides (daily ip injection for 5 days, 5 mg/kg) and monitored for survival. […]
MMP-9 enzymatic activity in tissue extracts was determined by SDS-PAGE gelatin zymography. […]

TREM-1 [2] = test: Rat model of myocardial ischemia-reperfusion, cardiac function by conductance catheter; type: in vivo; design: PRSW: unit not given beside the values; Emax / ESPVR: unit not given here; details: six weeks after ischemia-reperfusion; 3 mg/kg once a day for 5 days
Protocol: Adult male Wistar rats were subjected to myocardial ischemia-reperfusion and were randomly grouped (n=10) to receive repeated TREM-1- and TLT-1-derived peptides (3 mg/kg in 0.2 mL NaCl 0.9% once a day for 5 days) or scrambled-LR12 (3 mg/kg in 0.2 mL NaCl 0.9% once a day for 5 days). Six weeks after myocardial injury, cardiac function was investigated under anaesthesia by using a conductance catheter. Emax, ESPVR, and PRSW were higher in animals treated with TREM-1- and TLT-1-derived peptides than in control rats. All p<0.02 [controls versus LR12]).
Animals received same surgery than in permanent ischemia, but with reperfusion of ischemic area by release of the LAD ligation after 60 minutes of ischemia. The same protocol as described above was then applied.
Rats were anaesthetized with isoflurane and a 2 F high-fidelity micro-manometer catheter (SPR-407, Millar Institute, Houston, Tex., USA) was inserted into the LV via the right carotid artery. The Millar catheter was connected to a Harvard Data Acquisition System interfaced with a PC with the AcqKnowledge III software (ACQ 3.2).
To investigate the role of TREM-1- and TLT-1-derived peptides in a more relevant model of MI, we performed a transient coronary artery ligation (ischemia-reperfusion model: IR) in rats. After randomisation, animals were then imaged under anaesthesia (micro-TEP) and administered with TREM-1- and TLT-1-derived peptides (3 mg/kg daily for 5 days i.p.) or LR12-scrambled peptide. Imaging was then repeated at 6 weeks before we studied cardiac function by using a conductance catheter (Millar).

LQEEDAGEYGCM (listed as Homo sapiens) [TLT1-LR12]
myocardial infarction-induced gene activation (innate immunity / endothelial function genes) (TREM-1 [1]): opposed to myocardial infarction-induced gene activation
ESPVR (TREM-1 [2]): 2.2 ± 0.1
Emax (TREM-1 [2]): 4.8 ± 0.5
PRSW (TREM-1 [2]): 103 ± 5
